Experimental data reported in patent US9695155B2, “Herbicidal substituted pyrimidinyloxy benzene compounds” (E. I. DU PONT DE NEMOURS AND COMPANY, priority 2013, dated 2017).

Columns and labels:
kochia [1] = experiment: Test A postemergence; format: in vivo, Kochia scoparia; conditions: 1000 g ai/ha, 0 to 100 scale, 0 no effect, 100 complete control
Text: (§1) Seeds of plant species selected from barnyardgrass (Echinochloa crus-galli), kochia (Kochia scoparia), ragweed (common ragweed, Ambrosia elatior), Italian ryegrass (Lolium multiflorum), large (Lg) crabgrass (Digitaria sanguinalis), giant foxtail (Setaria faberii), morningglory (Ipomoea spp.), pigweed (Amaranthus retroflexus), velvetleaf (Abutilon theophrasti), wheat (Triticum aestivum), and corn (Zea mays) were planted into a blend of loam soil and sand and treated preemergence with a directed soil spray using test chemicals formulated in a non-phytotoxic solvent mixture which included a surfactant.
(§2) At the same time, plants selected from these crop and weed species and also blackgrass (Alopecurus myosuroides), and galium (catchweed bedstraw, Galium aparine) were planted in pots containing the same blend of loam soil and sand and treated with postemergence applications of test chemicals formulated in the same manner. Plants ranged in height from 2 to 10 cm and were in the one- to two-leaf stage for the postemergence treatment. Treated plants and untreated controls were maintained in a greenhouse for approximately 10 days, after which time all treated plants were compared to untreated controls and visually evaluated for injury. Plant response ratings, summarized in Table A, are based on a 0 to 100 scale where 0 is no effect and 100 is complete control. A dash (-) response means no test result.

kochia [2] = experiment: Test A preemergence; format: in vivo, Kochia scoparia; conditions: 1000 g ai/ha, 0 to 100 scale, 0 no effect, 100 complete control, approx. 10 days
Text: as §1, §2

ragweed [3] = experiment: Test A preemergence; format: in vivo, Ambrosia elatior; conditions: 1000 g ai/ha, 0 to 100 scale, 0 no effect, 100 complete control, approx. 10 days
Text: as §1, §2

wheat = experiment: Test A postemergence; format: in vivo, Triticum aestivum; conditions: 1000 g ai/ha, 0 to 100 scale, 0 no effect, 100 complete control
How it was run: (§3)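 Scoring: eye-based comparison with untreated controls, 0 for no effect through 100 for complete control, at about day 10. Treatments: directed soil spray preemergence; foliar spray postemergence on 2–10 cm plants at the one- to two-leaf stage. Medium: loam soil with sand.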

Italian ryegrass [4] = experiment: Test A postemergence; format: in vivo, Lolium multiflorum; conditions: 1000 g ai/ha, 0 to 100 scale, 0 no effect, 100 complete control
Text: as §1, §2

barnyardgrass [5] = experiment: Test A postemergence; format: in vivo, Echinochloa crus-galli; conditions: 1000 g ai/ha, 0 to 100 scale, 0 no effect, 100 complete control
How it was run: as §3

barnyardgrass [6] = experiment: Test A preemergence; format: in vivo, Echinochloa crus-galli; conditions: 1000 g ai/ha, 0 to 100 scale, 0 no effect, 100 complete control, approx. 10 days
How it was run: as §3

ragweed [7] = experiment: Test A postemergence; format: in vivo, Ambrosia elatior; conditions: 1000 g ai/ha, 0 to 100 scale, 0 no effect, 100 complete control
Text: as §1, §2

giant foxtail [8] = experiment: Test A postemergence; format: in vivo, Setaria faberii; conditions: 1000 g ai/ha, 0 to 100 scale, 0 no effect, 100 complete control
How it was run: as §3

pigweed [9] = experiment: Test A preemergence; format: in vivo, Amaranthus retroflexus; conditions: 1000 g ai/ha, 0 to 100 scale, 0 no effect, 100 complete control, approx. 10 days
How it was run: as §3

galium = experiment: Test A postemergence; format: in vivo, Galium aparine; conditions: 1000 g ai/ha, 0 to 100 scale, 0 no effect, 100 complete control
Text: as §1, §2

blackgrass = experiment: Test A postemergence; format: in vivo, Alopecurus myosuroides; conditions: 1000 g ai/ha, 0 to 100 scale, 0 no effect, 100 complete control
Text: as §1, §2

giant foxtail [10] = experiment: Test A preemergence; format: in vivo, Setaria faberii; conditions: 1000 g ai/ha, 0 to 100 scale, 0 no effect, 100 complete control, approx. 10 days
How it was run: as §3

corn = experiment: Test A postemergence; format: in vivo, Zea mays; conditions: 1000 g ai/ha, 0 to 100 scale, 0 no effect, 100 complete control
How it was run: as §3

Italian ryegrass [11] = experiment: Test A preemergence; format: in vivo, Lolium multiflorum; conditions: 1000 g ai/ha, 0 to 100 scale, 0 no effect, 100 complete control, approx. 10 days
Text: as §1, §2

pigweed [12] = experiment: Test A postemergence; format: in vivo, Amaranthus retroflexus; conditions: 1000 g ai/ha, 0 to 100 scale, 0 no effect, 100 complete control
How it was run: as §3

Structure (SMILES)	Plant response rating, Kochia (kochia [1])	Kochia plant response rating (kochia [2])	Ragweed plant response rating (ragweed [3])	Plant response rating, Wheat (wheat)	Plant response rating, Ryegrass, Italian (Italian ryegrass [4])	Plant response rating, Barnyardgrass (barnyardgrass [5])	Barnyardgrass plant response rating (barnyardgrass [6])	Plant response rating, Ragweed (ragweed [7])	Plant response rating, Foxtail, Giant (giant foxtail [8])	Pigweed plant response rating (pigweed [9])	Plant response rating, Galium (galium)	Plant response rating, Blackgrass (blackgrass)	Foxtail, Giant plant response rating (giant foxtail [10])	Plant response rating, Corn (corn)	Ryegrass, Italian plant response rating (Italian ryegrass [11])	Plant response rating, Pigweed (pigweed [12])
C[Si](C)(C)c1cn(-c2c(Br)cccc2Oc2ncc(Cl)cn2)nn1 [Compound 300]	20	60	0	0	0	0	20	0	30	100	40	0	80	10	20	60
CC(C)(C)NS(=O)(=O)c1cnn(-c2ccccc2Oc2ncc(Cl)cn2)c1 [Compound 283]	10	0	0	0	0	0	0	20	0	0	30	10	0	0	0	20
CN(C)C(=O)c1cccc(Oc2ncc(Cl)cn2)c1-n1cc(C(F)(F)F)cn1 [Compound 255]	50	70	20	0	0	10	10	10	10	60	10	10	10	0	20	30
CNC(=O)c1cccc(Oc2ncc(Cl)cn2)c1-n1cc(C(F)(F)F)cn1 [Compound 256]	30	70	30	0	0	10	20	10	10	30	30	10	30	0	20	10
